Measured values published in article PMC8026324, “In Vitro Antiplasmodial, Heme Polymerization, and Cytotoxicity of Hydroxyxanthone Derivatives” (Journal of Tropical Medicine, 2021).

Columns and labels:
[1] = test system: Plasmodium falciparum 3D-7 (chloroquine-sensitive strain); test: In vitro antiplasmodial activity assay, microscopic method, strain 3D-7; type: cell-based; details: for IC50: 72 hours incubation, microscopic method, read-out: IC50 on P. falciparum 3D-7; for antiplasmodial activity category on P. falciparum 3D-7: category by IC50
Method: (§1) The test of antiplasmodial activity began with the culture of P. falciparum 3D-7 and FCR-3 using the modified Trager and Jensen method. The plasmodium was cultured in human O red blood cells diluted to 3% haematocrit in RPMI 1640 medium complemented with 10% human O serum. The medium was made by adding 10.43 g of powder RPMI 1640, 6 g HEPES, 2 g NaHCO3, 25 mg gentamycin, and sterile distilled water up to 1 L. The medium pH was adjusted so that it reached ±7.2. It was sterilized using a 0.22 μm filter and stored at 4°C. The complete plasmodium culture medium was made by adding human serum with a concentration of 10% in the medium. The plasmodium culture was incubated in candle jar in an incubator with a temperature of 37°C and was observed every 24 hours.
(§2) The plasmodium was synchronized to obtain the ring stage by adding 5% of D-sorbitol. The plasmodium was transferred from culture flask to a conical tube, and then it was centrifuged with a speed of 1000 rpm for 10 minutes. After the supernatant was disposed, the sterile 5% sorbitol was added and incubated for 10 minutes at a temperature of 37°C. The plasmodium suspension was centrifuged again; the supernatant was disposed and the plasmodium was washed by adding culture medium. Then, the plasmodium suspension was centrifuged again, and the supernatant was discarded, resulting in a plasmodium in ring stage only. The parasitemia was calculated from a thin blood preparation. The test used 1% parasitemia at 2% haematocrit in RPMI medium which complemented with 10% human O serum.
(§3) Each testing compound was dissolved in RPMI medium. The testing compound in various concentrations with volume of 100 μL was incorporated into the 96-well microplate, and then 100 μL of Plasmodium suspension was added. Each series of concentrations was replicated three times. The microplate was incubated at a temperature of 37°C for 72 hours. At the end of the incubation, a thin blood smear was made using 10% Giemsa stain and observed under a light microscope at 1000x magnification. The percentage of parasitemia (counting a minimum of 1,000 erythrocytes) was calculated from the preparation of thin blood and then used to calculate the percentage of plasmodium growth inhibition. […] Antiplasmodial activity is expressed as IC50, which is the concentration of a compound that is required for 50% inhibition of plasmodium growth. The IC50 value was calculated by probit analysis using SPSS software (IBM Corp., Chicago). The lower the IC50 value obtained, the greater the antiplasmodial activity.

[2] = test system: Plasmodium falciparum FCR-3 (chloroquine-resistant strain); test: In vitro antiplasmodial activity assay, microscopic method, strain FCR-3; type: cell-based; details: for IC50: 72 hours incubation, microscopic method, read-out: IC50 on P. falciparum FCR-3; for antiplasmodial activity category on P. falciparum FCR-3: category by IC50
Method: as §1, §2, §3

Vero cells = test: In vitro cytotoxicity test, MTT assay on Vero cell line; type: cell-based; details: for IC50: MTT assay; for Selectivity index 3D-7: ratio IC50 on Vero cell/IC50 on P. falciparum 3D-7; for Selectivity index FCR-3: ratio IC50 on Vero cell/IC50 on P. falciparum FCR-3
Method: The in vitro cytotoxicity test was conducted using the 3-(4,5-dimethylthiazol-2-yl)2,5-diphenyltetrazolium bromide (MTT) assay method on Vero cell line culture using the Anderson et al.'s modified method.
The cell was removed from the cryo medium. Then, the cell was thawed at 37°C. The liquid cell was subsequently transferred to the tube and a culture medium was added to a volume of 10 mL. Then, the suspension was centrifuged for 15 minutes so that it would form cell pellets. The supernatant was removed and 1 mL of culture medium was added to the cell pellets. Finally, the suspension was transferred to the Petri dish and incubated in the incubator with 5% of CO2 at 37°C.
The medium of Vero cell culture was removed, and then the cell was washed using a PBS solution with a volume of PBS ± 1/2 of the initial medium volume. This step was done twice and 1 mL of trypsin 0.25% was added. Subsequently, the cell was incubated in the CO2 incubator at 37°C for 3 minutes. Then, the cell was resuspended using 2 mL of culture medium and PBS solution was added up to 10 mL. The suspension was centrifuged for 15 minutes so that it formed pellets. Pellets were added with 1 mL of culture medium and resuspended. Take 10 μL of the cell suspension and density of cells was calculated.
Then, the cell was added with culture medium to 10 mL. A total of 100 μL of such suspensions was transferred into each well of the 96-well microplate, but three of the wells were emptied as medium controls. Subsequently, the microplate was incubated in a 5% CO2 incubator at 37°C.
Each hydroxyxanthone derivative compound was dissolved in DMSO, and a variety of concentrations were prepared in the medium. Each concentration of the testing compound was added into the 96-well microplate triplicately. Cell control and medium control were not given a testing compound solution. The medium control remained blank, while the cell control contained culture medium only. […] Then, the cell was incubated in a 5% CO2 incubator at 37°C for 24 hours.
After the cell was incubated for 24 hours, the medium was discarded and washed with PBS. Then, each well was added with 100 μL of 5 mg/mL of MTT solution. The 96-well microplate was incubated again in the incubator of CO2 at 37°C for 4 hours. Then, 100 μL of 10% of SDS in 0.01 MHCl was added. The cells were placed in a dark room at room temperature for 24 hours.
The absorbance was measured using the enzyme-linked immunosorbent assay (ELISA) reader at 595 nm wavelength. The cytotoxicity test on the Vero cells was done by calculating the percentage of Vero cell inhibition of the absorption value of the test compound, cell control, and medium control. The cytotoxic effect was expressed as IC50. The IC50 value was obtained from the probit analysis by using SPSS software (IBM Corp., Chicago). The degree of selectivity was expressed as a selectivity index. The selectivity index was obtained from the ratio between the IC50 cytotoxic effect on Vero cells and IC50 antiplasmodial activity on Plasmodium. A compound is said to be safe if the value of the selectivity index is >10 [20].

MCF-7 = test system: MCF-7; design: method as in earlier work; details: cited from earlier work
WIDR = test system: WIDR; design: method as in earlier work; details: cited from earlier work
Hela = test system: Hela; design: method as in earlier work; details: cited from earlier work
[3] = Chlorocebus sabaeus, Vero, 24 h, 24 hours incubation

Structure (SMILES): O=c1c2ccc(O)c(O)c2oc2cccc(O)c12 [HX3, 1,5,6-trihydroxyxanthone]
- inhibition at 25.59 µM ([1]; Plasmodium falciparum, 25.59 μM, read-out: Growth inhibition of P. falciparum Strain 3D-7): 47.3 ± 0.611%
- inhibition at 51.19 µM ([1]; Plasmodium falciparum, 51.19 μM, read-out: Growth inhibition of P. falciparum Strain 3D-7): 63.4 ± 0.421%
- inhibition at 102.38 µM ([1]; Plasmodium falciparum, 102.38 μM, read-out: Growth inhibition of P. falciparum Strain 3D-7): 68.89 ± 0.151%
- inhibition at 204.75 µM ([1]; Plasmodium falciparum, 204.75 μM, read-out: Growth inhibition of P. falciparum Strain 3D-7): 80.92 ± 0.679%
- inhibition at 409.5 µM ([1]; Plasmodium falciparum, 409.5 μM, read-out: Growth inhibition of P. falciparum Strain 3D-7): 87.4 ± 1.15%
- IC50 ([1]; Plasmodium falciparum): 27.64 ± 0.19 µM
- antiplasmodial activity category on P. falciparum 3D-7 [1]: moderate (moderate (IC50 20–100 μM))
- inhibition at 25.59 µM ([2]; Plasmodium falciparum, FCR3, 25.59 μM, read-out: Growth inhibition of P. falciparum Strain FCR-3): 38.3 ± 1.19%
- inhibition at 51.19 µM ([2]; Plasmodium falciparum, FCR3, 51.19 μM, read-out: Growth inhibition of P. falciparum Strain FCR-3): 43.13 ± 0.126%
- inhibition at 102.38 µM ([2]; Plasmodium falciparum, FCR3, 102.38 μM, read-out: Growth inhibition of P. falciparum Strain FCR-3): 51.92 ± 0.466%
- inhibition at 204.75 µM ([2]; Plasmodium falciparum, FCR3, 204.75 μM, read-out: Growth inhibition of P. falciparum Strain FCR-3): 71.9 ± 7.84%
- inhibition at 409.5 µM ([2]; Plasmodium falciparum, FCR3, 409.5 μM, read-out: Growth inhibition of P. falciparum Strain FCR-3): 83 ± 1.4%
- IC50 ([2]; Plasmodium falciparum, FCR3): 64.1 ± 5.08 µM
- antiplasmodial activity category on P. falciparum FCR-3 [2]: moderate (moderate (IC50 20–100 μM))
- IC50 (Vero cells; 24 hours incubation): 224 µM
- IC50 (Vero cells; [3]): 230 µM
- inhibition at 63.88 µM (Vero cells; Chlorocebus sabaeus, Vero, 24 h, 63.88 μM, read-out: Vero cell growth inhibition after 24 hours incubation): 20.7%
- inhibition at 127.76 µM (Vero cells; Chlorocebus sabaeus, Vero, 24 h, 127.76 μM, read-out: Vero cell growth inhibition after 24 hours incubation): 39.6%
- inhibition at 255.94 µM (Vero cells; Chlorocebus sabaeus, Vero, 24 h, 255.94 μM, read-out: Vero cell growth inhibition after 24 hours incubation): 55.7%
- inhibition at 511.88 µM (Vero cells; Chlorocebus sabaeus, Vero, 24 h, 511.88 μM, read-out: Vero cell growth inhibition after 24 hours incubation): 68%
- inhibition at 1023.75 µM (Vero cells; Chlorocebus sabaeus, Vero, 24 h, 1023.75 μM, read-out: Vero cell growth inhibition after 24 hours incubation): 79.9%
- inhibition at 2047.5 µM (Vero cells; Chlorocebus sabaeus, Vero, 24 h, 2047.50 μM, read-out: Vero cell growth inhibition after 24 hours incubation): 88.9%
- IC50 (Vero cells; Chlorocebus sabaeus, Vero): 56.2 µg/mL
- Selectivity index 3D-7 (Vero cells): 8.12
- Selectivity index FCR-3 (Vero cells): 3.50
- cytotoxicity on MCF-7 (in words) (MCF-7): weak
- cytotoxicity on WIDR (in words) (WIDR): weak
- cytotoxicity on Hela (in words) (Hela): weak

Structure (SMILES): Cc1c(O)ccc2c(=O)c3c(O)cccc3oc12 [HX5, 1,6-dihydroxy-5-methylxanthone]
- inhibition at 20.64 µM ([1]; Plasmodium falciparum, 20.64 μM, read-out: Growth inhibition of P. falciparum Strain 3D-7): 37.9 ± 0.441%
- inhibition at 41.28 µM ([1]; Plasmodium falciparum, 41.28 μM, read-out: Growth inhibition of P. falciparum Strain 3D-7): 45 ± 0.563%
- inhibition at 82.56 µM ([1]; Plasmodium falciparum, 82.56 μM, read-out: Growth inhibition of P. falciparum Strain 3D-7): 54.2 ± 1.57%
- inhibition at 165.13 µM ([1]; Plasmodium falciparum, 165.13 μM, read-out: Growth inhibition of P. falciparum Strain 3D-7): 75.4 ± 1.29%
- inhibition at 330.25 µM ([1]; Plasmodium falciparum, 330.25 μM, read-out: Growth inhibition of P. falciparum Strain 3D-7): 93.3 ± 0.956%
- IC50 ([1]; Plasmodium falciparum): 46.69 ± 0.29 µM
- antiplasmodial activity category on P. falciparum 3D-7 [1]: moderate (moderate (IC50 20–100 μM))
- inhibition at 20.64 µM ([2]; Plasmodium falciparum, FCR3, 20.64 μM, read-out: Growth inhibition of P. falciparum Strain FCR-3): 33.63 ± 0.327%
- inhibition at 41.28 µM ([2]; Plasmodium falciparum, FCR3, 41.28 μM, read-out: Growth inhibition of P. falciparum Strain FCR-3): 41.14 ± 0.396%
- inhibition at 82.56 µM ([2]; Plasmodium falciparum, FCR3, 82.56 μM, read-out: Growth inhibition of P. falciparum Strain FCR-3): 46.5 ± 0.816%
- inhibition at 165.13 µM ([2]; Plasmodium falciparum, FCR3, 165.13 μM, read-out: Growth inhibition of P. falciparum Strain FCR-3): 73.5 ± 1.6%
- inhibition at 330.25 µM ([2]; Plasmodium falciparum, FCR3, 330.25 μM, read-out: Growth inhibition of P. falciparum Strain FCR-3): 84.7 ± 0.902%
- IC50 ([2]; Plasmodium falciparum, FCR3): 59.7 ± 0.78 µM
- antiplasmodial activity category on P. falciparum FCR-3 [2]: moderate (moderate (IC50 20–100 μM))
- IC50 (Vero cells; 24 hours incubation): 418 µM
- IC50 (Vero cells; [3]): 459 µM
- inhibition at 64.4 µM (Vero cells; Chlorocebus sabaeus, Vero, 24 h, 64.40 μM, read-out: Vero cell growth inhibition after 24 hours incubation): -5.19%
- inhibition at 128.8 µM (Vero cells; Chlorocebus sabaeus, Vero, 24 h, 128.80 μM, read-out: Vero cell growth inhibition after 24 hours incubation): 27.9%
- inhibition at 258.01 µM (Vero cells; Chlorocebus sabaeus, Vero, 24 h, 258.01 μM, read-out: Vero cell growth inhibition after 24 hours incubation): 37.8%
- inhibition at 516.02 µM (Vero cells; Chlorocebus sabaeus, Vero, 24 h, 516.02 μM, read-out: Vero cell growth inhibition after 24 hours incubation): 48.3%
- inhibition at 1032.03 µM (Vero cells; Chlorocebus sabaeus, Vero, 24 h, 1032.03 μM, read-out: Vero cell growth inhibition after 24 hours incubation): 68.1%
- inhibition at 2064.07 µM (Vero cells; Chlorocebus sabaeus, Vero, 24 h, 2064.07 μM, read-out: Vero cell growth inhibition after 24 hours incubation): 88.8%
- IC50 (Vero cells; Chlorocebus sabaeus, Vero): 111 µg/mL
- Selectivity index 3D-7 (Vero cells): 8.94
- Selectivity index FCR-3 (Vero cells): 6.99
- cytotoxicity on MCF-7 (in words) (MCF-7): weak
- cytotoxicity on WIDR (in words) (WIDR): weak
- cytotoxicity on Hela (in words) (Hela): weak
